Test results as given in the supplement of paper PMC8671470.
± gives the standard deviation of the averaged measurements.

Test system: HL-60
Experiment: cell viability (% survival relative to DMSO control); higher = less cytotoxic
Details: 72 h
Method in brief: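 HL-60 cells grown in RPMI 1640 with 10% FBS were rescreened against the full library in 384-well plates, in duplicate, at five tenfold concentrations from 1 to 10,000 nM, alongside DMSO or 100 nM of one of three metabolic inhibitors for 72 h at 37 °C, 5% CO2. Reference wells contained DMSO or 10 μM proteasome inhibitor. Viability was read with CellTiter-Glo and normalised to these reference wells, and where reported, area under the curve was taken from four-parameter log-logistic fits in drc and PharmacoGx.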

[1] = 0.001 µM, co-treatment: AZD3965 100 nM
[2] = 0.001 µM, co-treatment: DMSO vehicle
[3] = 0.001 µM, co-treatment: GSK2194069 100 nM
[4] = 0.001 µM, co-treatment: pictilisib 100 nM
[5] = 0.01 µM, co-treatment: AZD3965 100 nM
[6] = 0.01 µM, co-treatment: DMSO vehicle
[7] = 0.01 µM, co-treatment: GSK2194069 100 nM
[8] = 0.01 µM, co-treatment: pictilisib 100 nM
[9] = 0.1 µM, co-treatment: AZD3965 100 nM
[10] = 0.1 µM, co-treatment: DMSO vehicle
[11] = 0.1 µM, co-treatment: GSK2194069 100 nM
[12] = 0.1 µM, co-treatment: pictilisib 100 nM
[13] = 1 µM, co-treatment: AZD3965 100 nM
[14] = 1 µM, co-treatment: DMSO vehicle
[15] = 1 µM, co-treatment: GSK2194069 100 nM
[16] = 1 µM, co-treatment: pictilisib 100 nM
[17] = 10 µM, co-treatment: AZD3965 100 nM
[18] = 10 µM, co-treatment: DMSO vehicle
[19] = 10 µM, co-treatment: GSK2194069 100 nM
[20] = 10 µM, co-treatment: pictilisib 100 nM

## CC12CCC(O)CC1CCC1C2CCC2(C)C(C3=CC(=O)OC3)CCC12O (stereo not given) [Digitoxigenin]
[1]
  cell viability: 104 ± 7.6%
[2]
  cell viability: 99.5 ± 2.3%
[3]
  cell viability: 98.16 ± 0.98%
[4]
  cell viability: 104 ± 4.3%
[5]
  cell viability: 100 ± 5.7%
[6]
  cell viability: 105 ± 4.2%
[7]
  cell viability: 99.7 ± 2%
[8]
  cell viability: 105 ± 4.2%
[9]
  cell viability: 102 ± 1.2%
[10]
  cell viability: 100 ± 3%
[11]
  cell viability: 95 ± 3%
[12]
  cell viability: 101.7 ± 0.93%
[13]
  cell viability: -0.584 ± 0.77%
[14]
  cell viability: -1.01 ± 1.5%
[15]
  cell viability: -0.749 ± 1.5%
[16]
  cell viability: -1.18 ± 0.99%
[17]
  cell viability: -0.476 ± 0.086%
[18]
  cell viability: -0.944 ± 0.072%
[19]
  cell viability: -1.7 ± 0.21%
[20]
  cell viability: -1.09 ± 0.14%

## C[C@H]1O[C@@H](O[C@H]2[C@@H](O)C[C@H](O[C@H]3[C@@H](O)C[C@H](O[C@H]4CC[C@@]5(C)[C@H](CC[C@@H]6[C@@H]5C[C@@H](O)[C@]5(C)[C@@H](C7=CC(=O)OC7)CC[C@]65O)C4)O[C@@H]3C)O[C@@H]2C)C[C@H](O)[C@@H]1O [Digoxin]
[1]
  cell viability: 75.4 ± 20%
[2]
  cell viability: 96.3 ± 4.9%
[3]
  cell viability: 84.4 ± 2.7%
[4]
  cell viability: 90.5 ± 2.1%
[5]
  cell viability: 100.2 ± 0.99%
[6]
  cell viability: 102.5 ± 0.88%
[7]
  cell viability: 79.1 ± 12%
[8]
  cell viability: 89.6 ± 7.5%
[9]
  cell viability: 59.9 ± 4.1%
[10]
  cell viability: 59.4 ± 21%
[11]
  cell viability: 67.8 ± 22%
[12]
  cell viability: 51.4 ± 16%
[13]
  cell viability: -2.24 ± 0.7%
[14]
  cell viability: 0.303 ± 2.7%
[15]
  cell viability: -2.57 ± 0.89%
[16]
  cell viability: -2.59 ± 1.1%
[17]
  cell viability: -0.643 ± 0.45%
[18]
  cell viability: -1.62 ± 0.34%
[19]
  cell viability: -1.79 ± 0.52%
[20]
  cell viability: -1.33 ± 0.87%

## O=c1c2ccccc2[se]n1-c1ccccc1 [Ebselen]
[1]
  cell viability: 104 ± 4.5%
[2]
  cell viability: 98.4 ± 6.1%
[3]
  cell viability: 96.3 ± 1.7%
[4]
  cell viability: 96.51 ± 0.22%
[5]
  cell viability: 101 ± 1.1%
[6]
  cell viability: 98.6 ± 6.1%
[7]
  cell viability: 102 ± 2.2%
[8]
  cell viability: 92.1 ± 3.8%
[9]
  cell viability: 102 ± 11%
[10]
  cell viability: 103 ± 4.5%
[11]
  cell viability: 103 ± 11%
[12]
  cell viability: 97.4 ± 12%
[13]
  cell viability: 104 ± 5.3%
[14]
  cell viability: 99 ± 4.8%
[15]
  cell viability: 108 ± 10%
[16]
  cell viability: 103 ± 3.2%
[17]
  cell viability: 100 ± 1.4%
[18]
  cell viability: 95.7 ± 5.4%
[19]
  cell viability: 98.4 ± 1.8%
[20]
  cell viability: 86.2 ± 7.3%

## C#Cc1cnc(O)nc1O [Eniluracil]
[1]
  cell viability: 86 ± 17%
[2]
  cell viability: 102 ± 2%
[3]
  cell viability: 88.7 ± 30%
[4]
  cell viability: 85.5 ± 17%
[5]
  cell viability: 97.4 ± 1.8%
[6]
  cell viability: 101.6 ± 0.32%
[7]
  cell viability: 93.8 ± 3.5%
[8]
  cell viability: 100.4 ± 0.67%
[9]
  cell viability: 103 ± 2.1%
[10]
  cell viability: 101.1 ± 0.89%
[11]
  cell viability: 100.8 ± 0.49%
[12]
  cell viability: 99.32 ± 0.24%
[13]
  cell viability: 103 ± 1.8%
[14]
  cell viability: 99.9 ± 4.8%
[15]
  cell viability: 95.8 ± 9.8%
[16]
  cell viability: 102 ± 6.5%
[17]
  cell viability: 102.99 ± 0.034%
[18]
  cell viability: 101 ± 4.8%
[19]
  cell viability: 96.7 ± 6.7%
[20]
  cell viability: 103 ± 4.7%

## CC(/C=C1\SC(=S)N(CC(=O)O)C1=O)=C\c1ccccc1 [Epalrestat]
[1]
  cell viability: 102 ± 1.1%
[2]
  cell viability: 100 ± 6.5%
[3]
  cell viability: 102 ± 5.9%
[4]
  cell viability: 92 ± 4.1%
[5]
  cell viability: 64.9 ± 48%
[6]
  cell viability: 79.3 ± 39%
[7]
  cell viability: 79.1 ± 29%
[8]
  cell viability: 75.1 ± 35%
[9]
  cell viability: 105.5 ± 0.65%
[10]
  cell viability: 102 ± 4%
[11]
  cell viability: 109 ± 3.6%
[12]
  cell viability: 97.1 ± 7.8%
[13]
  cell viability: 101.8 ± 0.5%
[14]
  cell viability: 100.82 ± 0.007%
[15]
  cell viability: 107.58 ± 0.028%
[16]
  cell viability: 95.4 ± 13%
[17]
  cell viability: 87.6 ± 2.7%
[18]
  cell viability: 94.16 ± 0.38%
[19]
  cell viability: 94.2 ± 4.2%
[20]
  cell viability: 88.6 ± 2.3%

## CCOC(=O)[C@@]1(CCCCCCOc2ccc(Cl)cc2)CO1 [Etomoxir]
[1]
  cell viability: 102.9 ± 0.64%
[2]
  cell viability: 103 ± 1.2%
[3]
  cell viability: 106 ± 3.9%
[4]
  cell viability: 100 ± 5.9%
[5]
  cell viability: 84.3 ± 34%
[6]
  cell viability: 99.54 ± 0.17%
[7]
  cell viability: 92 ± 16%
[8]
  cell viability: 80.2 ± 27%
[9]
  cell viability: 106 ± 3.8%
[10]
  cell viability: 102 ± 3.4%
[11]
  cell viability: 103.8 ± 0.98%
[12]
  cell viability: 113 ± 5%
[13]
  cell viability: 87.5 ± 11%
[14]
  cell viability: 86.5 ± 21%
[15]
  cell viability: 77.9 ± 16%
[16]
  cell viability: 102 ± 3.8%
[17]
  cell viability: 109 ± 1.6%
[18]
  cell viability: 106 ± 1.7%
[19]
  cell viability: 100 ± 6.6%
[20]
  cell viability: 98 ± 6.5%

## Cc1c(-c2ccccc2)oc2c(C(=O)OCCN3CCCCC3)cccc2c1=O.Cl [Flavoxate]
[1]
  cell viability: 90.8 ± 13%
[2]
  cell viability: 99.7 ± 1.6%
[3]
  cell viability: 82.5 ± 21%
[4]
  cell viability: 98.6 ± 1%
[5]
  cell viability: 101.5 ± 0.24%
[6]
  cell viability: 100 ± 1.1%
[7]
  cell viability: 101 ± 2.1%
[8]
  cell viability: 105 ± 3.5%
[9]
  cell viability: 109 ± 9.9%
[10]
  cell viability: 104 ± 2.8%
[11]
  cell viability: 105 ± 11%
[12]
  cell viability: 110 ± 16%
[13]
  cell viability: 103 ± 3.7%
[14]
  cell viability: 95.5 ± 12%
[15]
  cell viability: 98.1 ± 9.8%
[16]
  cell viability: 101 ± 9.9%
[17]
  cell viability: 97.1 ± 5.2%
[18]
  cell viability: 98.8 ± 0.023%
[19]
  cell viability: 91.7 ± 8%
[20]
  cell viability: 91.7 ± 10%

## O=C(O)CCc1ccc(NCc2cccc(Oc3ccccc3)c2)cc1 [GW9508]
[1]
  cell viability: 101 ± 1.3%
[2]
  cell viability: 95.5 ± 6.2%
[3]
  cell viability: 105 ± 9.8%
[4]
  cell viability: 99.4 ± 5.3%
[5]
  cell viability: 98.73 ± 0.68%
[6]
  cell viability: 99.12 ± 0.57%
[7]
  cell viability: 98.1 ± 2.8%
[8]
  cell viability: 90.3 ± 3.8%
[9]
  cell viability: 98 ± 3.5%
[10]
  cell viability: 101.3 ± 0.3%
[11]
  cell viability: 101 ± 2.4%
[12]
  cell viability: 90.9 ± 12%
[13]
  cell viability: 105 ± 4.1%
[14]
  cell viability: 99.6 ± 0.95%
[15]
  cell viability: 108 ± 8.4%
[16]
  cell viability: 97.1 ± 6.7%
[17]
  cell viability: 103 ± 3.2%
[18]
  cell viability: 98.5 ± 1.1%
[19]
  cell viability: 107 ± 3.9%
[20]
  cell viability: 100 ± 3.3%

## c1ccc2c(c1)OCC(=C1NCCN1)O2 [Idazoxan]
[1]
  cell viability: 103 ± 1.6%
[2]
  cell viability: 99.03 ± 0.46%
[3]
  cell viability: 99.9 ± 1.9%
[4]
  cell viability: 104 ± 1.9%
[5]
  cell viability: 98 ± 3.2%
[6]
  cell viability: 101.2 ± 0.3%
[7]
  cell viability: 101 ± 1.7%
[8]
  cell viability: 102 ± 1.5%
[9]
  cell viability: 102 ± 3.3%
[10]
  cell viability: 100.8 ± 0.84%
[11]
  cell viability: 101.2 ± 0.31%
[12]
  cell viability: 93 ± 1.3%
[13]
  cell viability: 96 ± 5.5%
[14]
  cell viability: 101 ± 1.5%
[15]
  cell viability: 98.4 ± 4.8%
[16]
  cell viability: 95.1 ± 1.4%
[17]
  cell viability: 100 ± 2.2%
[18]
  cell viability: 98.4 ± 3.7%
[19]
  cell viability: 99.15 ± 0.27%
[20]
  cell viability: 98.7 ± 9.1%

## C[C@]12O[C@H](C[C@]1(O)CO)n1c3ccccc3c3c4c(c5c6ccccc6n2c5c31)CNC4=O [Lestaurtinib]
[1]
  cell viability: 104 ± 3.9%
[2]
  cell viability: 98.1 ± 4.1%
[3]
  cell viability: 107 ± 9.9%
[4]
  cell viability: 102 ± 4.3%
[5]
  cell viability: 92.9 ± 13%
[6]
  cell viability: 70.9 ± 44%
[7]
  cell viability: 86.5 ± 36%
[8]
  cell viability: 66.2 ± 28%
[9]
  cell viability: 76.5 ± 4.3%
[10]
  cell viability: 86.9 ± 3.4%
[11]
  cell viability: 83.2 ± 7.7%
[12]
  cell viability: 53.5 ± 8.1%
[13]
  cell viability: 23.5 ± 3.5%
[14]
  cell viability: 26.6 ± 0.46%
[15]
  cell viability: 31 ± 4.3%
[16]
  cell viability: 20.3 ± 3.2%
[17]
  cell viability: -1.19 ± 0.32%
[18]
  cell viability: -1.8 ± 0.59%
[19]
  cell viability: -1.73 ± 0.11%
[20]
  cell viability: -2.07 ± 1.2%

## O=C(O)c1nn(Cc2ccc(Cl)cc2Cl)c2ccccc12 [Lonidamine]
[1]
  cell viability: 96.3 ± 3.7%
[2]
  cell viability: 97.83 ± 0.75%
[3]
  cell viability: 96.6 ± 2.2%
[4]
  cell viability: 101 ± 1.6%
[5]
  cell viability: 90.8 ± 2%
[6]
  cell viability: 105 ± 1.4%
[7]
  cell viability: 97.05 ± 0.16%
[8]
  cell viability: 99.3 ± 12%
[9]
  cell viability: 100 ± 3.7%
[10]
  cell viability: 100.5 ± 0.34%
[11]
  cell viability: 98.9 ± 2.4%
[12]
  cell viability: 98.22 ± 0.36%
[13]
  cell viability: 101 ± 1.1%
[14]
  cell viability: 101 ± 1.2%
[15]
  cell viability: 101 ± 7.9%
[16]
  cell viability: 103 ± 7.6%
[17]
  cell viability: 95.4 ± 9.7%
[18]
  cell viability: 98.4 ± 5.4%
[19]
  cell viability: 99.8 ± 5.7%
[20]
  cell viability: 94.8 ± 8.1%
